Structures can show the parent of a compound that is named as a salt. Where two headings read alike, the source gives them in different places.
Key:
human platelets = test: In vitro inhibition of collagen-induced platelet aggregation, human platelets (PRP); assay type: cell-based; settings: 0.05 h, collagen 5 μg/ml, 3 minutes of contact at 37° C., read-out: IC50 (M) in vitro, Man
Method: A study of the inhibitory activity of the compounds of formula I on platelet aggregation was carried out in vitro, i.e. by direct contact of solutions of variable concentrations of the compounds with platelets freshly separated from a sample of total blood, taken under standardized conditions, from laboratory animals (guinea pigs) and from healthy human subjects who have not received any substances or drugs that might interfere with blood clotting. The anti-platelet-aggregating activity was also studied ex vivo/vitro, i.e. after administration of the substances claimed to guinea pigs to measure the intensity and duration of the anti-aggregating action induced by the fraction of the test product absorbed and circulating in the blood.
Venous blood is taken from a group of ten healthy human subjects of the same age, by puncture into a vein of the fold of the elbow and is collected in a glass tube containing aqueous 0.129 M sodium citrate solution (1 volume of citrate solution per 9 volumes of blood). Each tube is then centrifuged a first time at 20° C. and 100 g for 15 minutes in order to obtain the platelet-rich plasma (PRP); after removing this PRP, the tube is again centrifuged at 2000 g for 15 minutes in order this time to remove the platelet-poor plasma (PPP).
For each identified sample of PRP, the platelets are counted using a Coulter ZM counter. Each sample is then used to study the variation in inhibition of the platelet aggregation triggered by the addition of a Chromo-par Reagent collagen glucose solution from Coultronics (used at a concentration of 5 μg/ml) as a function of the addition of increasing concentrations of each compound in a range covering the interval 10^-8 M→10^-5 M, (example of concentrations: 10^-8 M, […], 6×10^-6 M, 4×10^-6 M, 2×10^-6 M, 10^-6 M, […], 10^-5 M). Beforehand, for each compound, an aqueous 10^-3 M solution is prepared. A control test intended to check the possible effect of the solvents (reference value) on the platelet aggregation is introduced into each measurement series, and is measured after 3 minutes of contact at 37° C. with agitation.
From the percentages of inhibition of the platelet aggregation measured for each concentration of each compound, the 50% inhibitory concentration (IC50) is calculated.

guinea pig platelets [1] = test: In vitro inhibition of collagen-induced platelet aggregation, guinea pig platelets (PRP); assay type: cell-based, guinea pig (male Dunkin-Hartley); settings: Cavia porcellus, Platelet, 0.05 h, collagen 1 μg/ml, 3 minutes of contact at 37° C.
Outline: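 Citrated PRP from male Dunkin-Hartley guinea pigs, adjusted to 200,000–400,000 platelets/mm^3, with PPP as reference. Aggregation induced by collagen (1 μg/ml) and followed by optical aggregometry; inhibition measured after 3 min compound contact at 37° C with stirring.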

guinea pig platelets [2] = test: Ex vivo/vitro inhibition of platelet aggregation after administration via the gastric route in guinea pigs; parameters: species or system guinea pig (Dunkin-Hartley); settings: Cavia porcellus, Platelet, 10 mg/kg, fasted guinea pigs
Outline: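 Freshly separated platelets from Dunkin-Hartley guinea pigs given test compounds by the gastric route (random allocation) were tested ex vivo under the in vitro assay conditions. Aggregation inhibition at each concentration gave an IC50 plus kinetics and duration of effect.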

[3] = 1 h before blood sampling, read-out: % of g.r. inhibition guinea pig ex vivo, d = 10 mg/kg, 1 h
[4] = 2 h before blood sampling, read-out: % of g.r. inhibition guinea pig ex vivo, d = 10 mg/kg, 2 h

| Structure (SMILES) | IC50 (human platelets) [M] | IC50 (guinea pig platelets [1]) [nM] | inhibition at 10 mg/kg (guinea pig platelets [2]; [3]) [%] | inhibition at 10 mg/kg (guinea pig platelets [2]; [4]) [%] |
| --- | --- | --- | --- | --- |
| O=C(CNC(=O)C(CCC1CCNCC1)CCC1CCNCC1)NCC(NS(=O)(=O)c1ccc(Cl)cc1)C(=O)O (centres unmarked) [Example 34, 2-([(4-Chlorophenyl)sulphonyl]amino)-3-{[2-({4-(4-piperidyl)-2-[2-(4-piperidyl)ethyl]butanoyl}amino)acetyl]amino}propanoic Acid Dihydrochloride] | 8.9e-07 | 500 | -19 | -8 |
| O=C(CNC(=O)C(CCC1CCNCC1)CCC1CCNCC1)NCC(NS(=O)(=O)c1ccc(F)cc1)C(=O)O (centres unmarked) [Example 35, 2-{[(4-Fluorophenyl)sulphonyl]amino}-3-{[2-({4-(4-piperidyl)-2-[2-(4-piperidyl)ethyl]butanoyl}amino)acetyl]amino}propanoic Acid Dihydrochloride] | 1.3e-08 | 18 | -5 | 0 |
| COc1ccc2cc(S(=O)(=O)N[C@@H](CNC(=O)CNC(=O)C(CCC3CCNCC3)CCC3CCNCC3)C(=O)O)ccc2c1 [Example 36, (2S)-2-{[(6-Methoxy-2-naphthyl)sulphonyl]amino}-3-{[2-({4-(4-piperidyl)-2-[2-(4-piperidyl)ethyl]butanoyl}amino)acetyl]amino}propanoic Acid Dihydrochloride] | 7.2e-08 | 41 | -63 | -69 |
| Cc1cc(C)c(S(=O)(=O)NC(CNC(=O)CNC(=O)C(CCC2CCNCC2)CCC2CCNCC2)C(=O)O)c(C)c1 (centres unmarked) [Example 37, 2-[(Mesitylsulphonyl)amino]-3-{[2-({4-(4-piperidyl)-2-[2-(4-piperidyl)ethyl]butanoyl}amino)acetyl]amino}propanoic Acid Dihydrochloride] | 1.3e-07 | 140 | -9 | -16 |
| CN(C)c1cccc2c(S(=O)(=O)NC(CNC(=O)CNC(=O)C(CCC3CCNCC3)CCC3CCNCC3)C(=O)O)cccc12 (centres unmarked) [Example 49, 2-({[5-(Dimethylamino)-1-naphthyl)sulphonyl}amino)-3-{[2-({4-(4-piperidyl)-2-[2-(4-piperidyl)ethyl]butanoyl}amino)acetyl]amino}propanoic Acid Trihydrochloride] | 5.6e-08 | 49 | -69 | -68 |
| COc1ccc(S(=O)(=O)N[C@@H](CNC(=O)CNC(=O)C(CCC2CCNCC2)CCC2CCNCC2)C(=O)O)c2ccccc12 [Example 52, 2-([(4-Methoxy-1-naphthyl)sulphonyl]amino)-3-{[2-({4-(4-piperidyl)-2-[2-(4-piperidyl)ethyl]butanoyl}amino)acetyl]amino}propanoic Acid Dihydrochloride] | 9.3e-08 | 35 | -58 | -30 |
| COc1cc2ccc(S(=O)(=O)N[C@@H](CNC(=O)CNC(=O)C(CCC3CCNCC3)CCC3CCNCC3)C(=O)O)cc2cc1OC [Example 53, 2-{[(6,7-Dimethoxy-2-naphthyl)sulphonyl]amino}-3-{[2-({4-(4-piperidyl)-2-[2-(4-piperidyl)ethyl]butanoyl}amino)acetyl]amino}propanoic Acid Dihydrochloride] | 7.3e-08 | 37 | -73 | -9 |
| O=C(CNC(=O)C(CCC1CCNCC1)CCC1CCNCC1)NC[C@H](NS(=O)(=O)c1cc2ccccc2s1)C(=O)O [Example 59, 2-[(1-Benzothiophen-2-ylsulphonyl)amino]-3-{[2-({4-(4-piperidyl)-2-[2-(4-piperidyl)ethyl]butanoyl}amino)acetyl]amino}propanoic Acid Dihydrochloride] | 1.5e-07 | 66 | -66 | -34 |
| O=C(CNC(=O)C(CCC1CCNCC1)CCC1CCNCC1)NCC(NS(=O)(=O)c1ccc(Cl)c2ccccc12)C(=O)O (centres unmarked) [Example 63, 2-{[(4-Chloro-1-naphthyl)sulphonyl]amino}-3-{[2-({4-(4-piperidyl)-2-[2-(4-piperidyl)ethyl]butanoyl}amino)acetyl]amino}propanoic Acid Dihydrochloride] | 1e-06 | 53 | -69 | -50 |
| O=C(CNC(=O)C(CCC1CCNCC1)CCC1CCNCC1)NCC(NS(=O)(=O)c1ccc(-c2ccccc2)s1)C(=O)O (centres unmarked) [Example 71, 2-{[(5-Phenyl-2-thienyl))sulphonyl]amino}-3-{[2-({4-(4-piperidyl)-2-[2-(4-piperidyl)ethyl]butanoyl}amino)acetyl]amino}propanoic Acid Dihydrochloride] | 1.9e-07 | 63 | -72 | -70 |
| O=C(CCNC(=O)C(CCC1CCNCC1)CCC1CCNCC1)NCC(NS(=O)(=O)c1ccc2ccccc2c1)C(=O)O (centres unmarked) [Example 78, 2-[(2-Naphthylsulphonyl)amino]-3-{[3-({4-(4-piperidyl)-2-[2-(4-piperidyl)ethyl]butanoyl}amino)propanoyl]amino}propanoic Acid Dihydrochloride] | 1e-07 | 46 | -65 | -73 |

— US6333338A, “Bispiperidines as antithrombotic agents” (Laboratoire L. Lafon, priority 1998, dated 2001)
